Data on 25 compounds can be found in patent US8563553B2, “Compounds and compositions as protein kinase inhibitors” (Novartis AG, priority 2009, dated 2013).

The target of the test is b-Raf(V600E) (Homo sapiens (Human), UniProt P15056, V600E). The test is described as follows: Raf/Mek Amplified Luminescence Proximity Homogeneous Assay (Alpha Screen). In kind it is biochemical. As to conditions: b-Raf(V600E) approximately 4 pM; biotinylated Mek, kinase dead approximately 10 nM; ATP 10 μM; pre-incubation 60 minutes; reaction 3 hours at room temperature; read-out: mut-B-RAF IC50. How it is done: Raf/Mek Amplified Luminescence Proximity Homogeneous Assay
b-Raf(V600E), sequence (P15056 whole entry V600E): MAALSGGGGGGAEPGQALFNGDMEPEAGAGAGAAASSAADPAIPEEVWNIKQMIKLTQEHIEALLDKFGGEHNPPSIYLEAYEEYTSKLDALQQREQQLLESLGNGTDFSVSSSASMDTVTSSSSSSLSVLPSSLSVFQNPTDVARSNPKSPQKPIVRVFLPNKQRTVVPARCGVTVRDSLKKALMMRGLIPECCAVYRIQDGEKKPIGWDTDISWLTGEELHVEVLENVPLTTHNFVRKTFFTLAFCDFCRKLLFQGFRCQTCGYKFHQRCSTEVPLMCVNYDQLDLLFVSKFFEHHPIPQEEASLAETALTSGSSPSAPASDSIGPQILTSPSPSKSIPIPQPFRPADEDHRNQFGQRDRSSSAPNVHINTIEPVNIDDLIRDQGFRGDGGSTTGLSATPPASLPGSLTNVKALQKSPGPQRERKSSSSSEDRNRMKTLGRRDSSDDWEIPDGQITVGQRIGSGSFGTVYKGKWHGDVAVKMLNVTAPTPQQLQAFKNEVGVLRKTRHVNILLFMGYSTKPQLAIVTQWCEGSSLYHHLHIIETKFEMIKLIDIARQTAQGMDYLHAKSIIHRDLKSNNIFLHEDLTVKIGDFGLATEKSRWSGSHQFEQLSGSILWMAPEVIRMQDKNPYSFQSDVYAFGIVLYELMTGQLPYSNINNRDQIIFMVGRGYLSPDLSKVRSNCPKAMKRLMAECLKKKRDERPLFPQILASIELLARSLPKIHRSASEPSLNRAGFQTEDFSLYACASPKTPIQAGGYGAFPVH
Assay buffer: 50 mM Tris, pH 7.5, 15 mM MgCl2, 0.01% Bovine Serum Albumin (BSA), 1 mM dithiothreitol (DTT) Stop buffer: 60 mM ethylenediaminetetraacetic acid (EDTA), 0.01% Tween® 20 Bead buffer: 50 mM Tris, pH 7.5, 0.01% Tween® 20 […]
biotinylated Mek, kinase dead
Alpha Screen detection kit (available from PerkinElmer™, #6760617R)
Anti phospho-MEK1/2 (available from Cell Signaling Technology, Inc. #9121) 384 well assay plates (White Greiner® plates, #781207) […]
biotinylated Mek, Kinase dead approximately 10 nM
Pre-incubation time with compounds 60 minutes at room temperature
Reaction time 1 or 3 hours at room temperature
Raf and biotinylated Mek, kinase dead, were combined at 2× final concentrations in assay buffer (50 mM Tris, pH 7.5, 15 mM MgCl2, 0.01% BSA and 1 mM DTT) and dispensed 10 μl per well in assay plates (Greiner white 384 well assay plates #781207) containing 0.5 μl of 40× of a raf kinase inhibitor test compound diluted in 100% DMSO. The plate was incubated for 60 minutes at room temperature.
The Raf kinase activity reaction was started by the addition of 10 μL per well of 2×ATP diluted in assay buffer. […] Phosphorylated product was measured using a rabbit anti-p-MEK (Cell Signaling, #9121) antibody and the Alpha Screen IgG (ProteinA) detection Kit (PerkinElmer #6760617R), by the addition of 30 μL to the well of a mixture of the antibody (1:2000 dilution) and detection beads (1:2000 dilution of both beads) in bead buffer (50 mM Tris, pH 7.5, 0.01% Tween20). The additions were carried out under dark conditions to protect the detection beads from light. A lid was placed on top of the plate and incubated for 1 hour at room temperature, then the luminescence was read on a PerkinElmer Envision instrument. The concentration of each compound for 50% inhibition (IC50) was calculated by non-linear regression using XL Fit data analysis software.

As a reminder, the IC50 is the concentration that gives 50% inhibition. Regarding `O=S(=O)(Nc1cc(F)cc(-c2nc(C3CC3)[nH]c2-c2ccncn2)c1Cl)c1c(F)cccc1F` [Example 2I, N-(2-Chloro-3-(2-cyclopropyl-5-(pyrimidin-4-yl)-1H-imidazol-4-yl)-5-fluorophenyl)-2,6-difluorobenzenesulfonamide], the concentration for half-maximal inhibition (IC50) amounted to 1 nM.
To `CCCS(=O)(=O)Nc1cccc(-c2nc(C3CC3)[nH]c2-c2ccnc(NCCC#N)n2)c1F` [Example 4G, N-(3-(5-(2-(2-Cyanoethylamino)pyrimidin-4-yl)-2-cyclopropyl-1H-imidazol-4-yl)-2-fluorophenyl)propane-1-sulfonamide] belongs 0.13 nM.
To `COC(=O)N[C@@H](C)CNc1nccc(-c2[nH]c(C3CCC3)nc2-c2cc(F)cc(NS(C)(=O)=O)c2Cl)n1` [Example 1BU, (S)-Methyl 1-(4-(4-(2-chloro-5-fluoro-3-(methylsulfonamido)phenyl)-2-cyclobutyl-1H-imidazol-5-yl)pyrimidin-2-ylamino)propan-2-ylcarbamate] belongs 1 nM; to `COC(=O)N[C@@H](C)CNc1nccc(-c2[nH]c(C3CC3)nc2-c2cccc(NS(C)(=O)=O)c2)n1` [Example 4K, (S)-Methyl 1-(4-(2-cyclopropyl-4-(3-(methylsulfonamido)phenyl)-1H-imidazol-5-yl)pyrimidin-2-ylamino)propan-2-ylcarbamate], 8 nM.
On to `CCCS(=O)(=O)Nc1cccc(-c2nc(C3CC3)[nH]c2-c2ccnc(NCCC(N)=O)n2)c1F` [Example 4H, 3-(4-(2-Cyclopropyl-4-(2-fluoro-3-(propylsulfonamido)phenyl)-1H-imidazol-5-yl)pyrimidin-2-ylamino)propanamide], for which the IC50 was determined as 2 nM.
To `CS(=O)(=O)Nc1cc(Cl)cc(-c2nc(C3CC3)[nH]c2-c2ccnc(N)n2)c1F` [Example 1BG, N-(3-(5-(2-Aminopyrimidin-4-yl)-2-cyclopropyl-1H-imidazol-4-yl)-5-chloro-2-fluorophenyl)methanesulfonamide] belongs 4 nM.
Turning to `Cc1cc(NS(C)(=O)=O)c(F)c(-c2nc(C3(C)CC3)[nH]c2-c2ccnc(NCCC#N)n2)c1` [Example 1BA, N-(3-(5-(2-(2-Cyanoethylamino)pyrimidin-4-yl)-2-(1-methylcyclopropyl)-1H-imidazol-4-yl)-2-fluoro-5-methylphenyl)methanesulfonamide], the IC50 is 0.37 nM.
As to `C[C@H](O)CNc1nccc(-c2[nH]c(C3CC3)nc2-c2cccc(NS(C)(=O)=O)c2F)n1` [Example 3B, (S)—N-(3-(2-cyclopropyl-5-(2-(2-hydroxypropylamino)pyrimidin-4-yl)-1H-imidazol-4-yl)-2-fluorophenyl)methanesulfonamide], the IC50 is 28 nM.
Turning to `CCCS(=O)(=O)Nc1cc(Cl)cc(-c2nc(C(C)(C)C)[nH]c2-c2ccnc(NC[C@H](C)NC(=O)OC)n2)c1` [Example 1E, (S)-methyl 1-(4-(2-tert-butyl-4-(3-chloro-5-(propylsulfonamido)phenyl)-1H-imidazol-5-yl)pyrimidin-2-ylamino)propan-2-ylcarbamate], the IC50 was 0.1 nM.
With `CC(C)(C)c1nc(-c2cc(F)cc(NS(C)(=O)=O)c2Cl)c(-c2ccnc(N)n2)[nH]1` [Example 1BJ, N-(3-(5-(2-Aminopyrimidin-4-yl)-2-tert-butyl-1H-imidazol-4-yl)-2-chloro-5-fluorophenyl)methanesulfonamide] the figure was 5 nM; with `COC(=O)N[C@@H](C)CNc1nccc(-c2[nH]c(-c3ccc(F)cc3F)nc2-c2cc(F)cc(NS(C)(=O)=O)c2Cl)n1` [Example 1BY], 2040 nM; with `CCC(C)S(=O)(=O)Nc1cc(Cl)cc(-c2nc(C(C)(C)C)[nH]c2-c2ccnc(NC[C@H](C)NC(=O)OC)n2)c1` (stereo partly drawn) [Example 1H, Methyl (2S)-1-(4-(2-tert-butyl-4-(3-chloro-5-(1-methylpropylsulfonamido)phenyl)-1H-imidazol-5-yl)pyrimidin-2-ylamino)propan-2-ylcarbamate], 0.5 nM.
Regarding `CCCS(=O)(=O)Nc1cc(F)cc(-c2nc(C3CC3)[nH]c2-c2ccnc(NC(C)C)n2)c1Cl` [Example 1AU, N-(2-Chloro-3-(2-cyclopropyl-5-(2-(isopropylamino)pyrimidin-4-yl)-1H-imidazol-4-yl)-5-fluorophenyl)propane-1-sulfonamide], the IC50 amounted to 5 nM.
To `COC(=O)N[C@@H](C)CNc1nccc(-c2[nH]c(C(C)(C)C)nc2-c2cc(F)cc(NS(C)(=O)=O)c2Cl)n1` [Example 1AG, (S)-Methyl 1-(4-(2-tert-butyl-4-(2-chloro-5-fluoro-3-(methylsulfonamido)phenyl)-1H-imidazol-5-yl)pyrimidin-2-ylamino)propan-2-ylcarbamate] belongs 1 nM; to `COC(=O)N[C@@H](C)CNc1nccc(-c2[nH]c(C(C)(C)C)nc2-c2cccc(NS(C)(=O)=O)c2F)n1` [Example 2C, (S)-Methyl 1-(4-(2-tert-butyl-4-(2-fluoro-3-(methylsulfonamido)phenyl)-1H-imidazol-5-yl)pyrimidin-2-ylamino)propan-2-ylcarbamate], 0.61 nM; to `COC(=O)N[C@@H](C)CNc1nccc(-c2nc(C3CC3)[nH]c2-c2cc(Cl)cc(NS(=O)(=O)c3ccc(F)cc3)c2F)n1` [Example 1AW], 1 nM.
With `COC(=O)N[C@@H](C)CNc1nccc(-c2[nH]c(C3CC3)nc2-c2cc(F)cc(NS(=O)(=O)C3CC3)c2Cl)n1` [Example 1AE, (S)-Methyl 1-(4-(4-(2-chloro-3-(cyclopropanesulfonamido)-5-fluorophenyl)-2-cyclopropyl-1H-imidazol-5-yl)pyrimidin-2-ylamino)propan-2-ylcarbamate] the figure was 0.3 nM.
In the case of `CCCS(=O)(=O)Nc1cc(F)cc(-c2nc(C3CC3)[nH]c2-c2ccnc(NCC)n2)c1Cl` [Example 1AS, N-(2-Chloro-3-(2-cyclopropyl-5-(2-(ethylamino)pyrimidin-4-yl)-1H-imidazol-4-yl)-5-fluorophenyl)propane-1-sulfonamide], the IC50 was 1 nM.
In the case of `CNc1nccc(-c2[nH]c(C3CC3)nc2-c2cc(F)cc(NS(C)(=O)=O)c2Cl)n1` [Example 1BW, N-(2-Chloro-3-(2-cyclopropyl-5-(2-(methylamino)pyrimidin-4-yl)-1H-imidazol-4-yl)-5-fluorophenyl)methanesulfonamide], the half-maximal inhibitory concentration (IC50) is 31 nM.
Turning to `CCCS(=O)(=O)Nc1cc(Cl)cc(-c2nc(C(C)(C)C)[nH]c2-c2ccnc(N)n2)c1F` [Example 1BH, N-(3-(5-(2-Aminopyrimidin-4-yl)-2-tert-butyl-1H-imidazol-4-yl)-5-chloro-2-fluorophenyl)propane-1-sulfonamide], the IC50 is 0.08 nM.
On to `COC(=O)N[C@@H](C)CNc1nccc(-c2[nH]c(C(C)(C)C)nc2-c2cc(C)cc(NS(=O)(=O)C(C)C)c2)n1` [Example 1Q, (S)-Methyl 1-(4-(2-tert-butyl-4-(3-methyl-5-(1-methylethylsulfonamido)phenyl)-1H-imidazol-5-yl)pyrimidin-2-ylamino)propan-2-ylcarbamate], for which the IC50 was 3.12 nM.
With `COC(=O)N[C@@H](C)CNc1nccc(-c2nc(C3CC3)[nH]c2-c2cc(Cl)cc(NS(=O)(=O)CCC(F)(F)F)c2F)n1` [Example 1AA, (S)-Methyl 1-(4-(5-(5-chloro-2-fluoro-3-(3,3,3-trifluoropropylsulfonamido)phenyl)-2-cyclopropyl-1H-imidazol-4-yl)pyrimidin-2-ylamino)propan-2-ylcarbamate] the figure was 0.6 nM.
With `COC(=O)N[C@@H](C)CNc1nccc(-c2[nH]c(C3CC3)nc2-c2cc(Cl)cc(NS(C)(=O)=O)c2Cl)n1` [Example 1X, (S)-Methyl 1-(4-(2-cyclopropyl-4-(2,5-dichloro-3-(methylsulfonamido)phenyl)-1H-imidazol-5-yl)pyrimidin-2-ylamino)propan-2-ylcarbamate] the figure was 0.18 nM.
With `COC(=O)N[C@@H](C)CNc1nccc(-c2[nH]c(C3CC3)nc2-c2cc(C)cc(NS(C)(=O)=O)c2F)n1` [Example 1B, (S)-methyl 1-(4-(2-cyclopropyl-4-(2-fluoro-5-methyl-3-(methylsulfonamido)phenyl)-1H-imidazol-5-yl)pyrimidin-2-ylamino)propan-2-ylcarbamate] the figure was 0.2 nM; with `CC(C)(C)c1nc(-c2cc(Cl)cc(NS(=O)(=O)c3c(F)cccc3F)c2F)c(-c2ccnc(N)n2)[nH]1` [Example 1BE, N-(3-(5-(2-Aminopyrimidin-4-yl)-2-tert-butyl-1H-imidazol-4-yl)-5-chloro-2-fluorophenyl)-2,6-difluorobenzenesulfonamide], 0.13 nM.
